Source: paper PMC7523345 (Investigational new drugs, 2018)

Test: Phase I dose escalation study: safety, tolerability, DLT and MTD
Assay type: in vivo

Cc1cccc2c1NC(=O)[C@@H](NC(=O)[C@H](CCC(F)(F)F)[C@H](CCC(F)(F)F)C(N)=O)N=C2c1cccc(F)c1 [BMS-986115]
2 (100) n (%): Hypophosphataemia (drug related AE, all grades) (Arm A QD 0.3 mg (N = 2))
0: No. of patients with DLTs (Arm A QD 0.3 mg, 2 DLT evaluable patients)
0 n (%): Fatigue (drug related AE, Grade 3 and 4) (Arm A QD 0.3 mg (N = 2)) | Fatigue (drug related AE, all grades) (Arm A QD 0.3 mg (N = 2)) | Flatulence (drug related AE, all grades) (Arm A QD 0.3 mg (N = 2)) | Hypocalcaemia (drug related AE, Grade 3 and 4) (Arm A QD 0.3 mg (N = 2)) | Hypocalcaemia (drug related AE, all grades) (Arm A QD 0.3 mg (N = 2)) | Hypokalaemia (drug related AE, Grade 3 and 4) (Arm A QD 0.3 mg (N = 2)) | Hypokalaemia (drug related AE, all grades) (Arm A QD 0.3 mg (N = 2)) | Hyponatraemia (drug related AE, Grade 3 and 4) (Arm A QD 0.3 mg (N = 2)) | Hyponatraemia (drug related AE, all grades) (Arm A QD 0.3 mg (N = 2)) | Ileus (drug related AE, Grade 3 and 4) (Arm A QD 0.3 mg (N = 2)) | Increased upper airway secretion (drug related AE, all grades) (Arm A QD 0.3 mg (N = 2)) | Laryngeal pain (drug related AE, all grades) (Arm A QD 0.3 mg (N = 2)) | Leucocytosis (drug related AE, Grade 3 and 4) (Arm A QD 0.3 mg (N = 2)) | Mouth ulceration (drug related AE, all grades) (Arm A QD 0.3 mg (N = 2)) | Nausea (drug related AE, Grade 3 and 4) (Arm A QD 0.3 mg (N = 2)) | Nausea (drug related AE, all grades) (Arm A QD 0.3 mg (N = 2)) | Pruritus (drug related AE, Grade 3 and 4) (Arm A QD 0.3 mg (N = 2)) | Pulmonary embolism (drug related AE, Grade 3 and 4) (Arm A QD 0.3 mg (N = 2)) | Rash maculopapular (drug related AE, all grades) (Arm A QD 0.3 mg (N = 2)) | Urticaria (drug related AE, Grade 3 and 4) (Arm A QD 0.3 mg (N = 2)) | Vision blurred (drug related AE, all grades) (Arm A QD 0.3 mg (N = 2)) | Vomiting (drug related AE, Grade 3 and 4) (Arm A QD 0.3 mg (N = 2)) | Vomiting (drug related AE, all grades) (Arm A QD 0.3 mg (N = 2)) | Weight decreased (drug related AE, all grades) (Arm A QD 0.3 mg (N = 2)) | Abdominal distension (drug related AE, all grades) (Arm A QD 0.6 mg (N = 2)) | Abdominal pain (drug related AE, Grade 3 and 4) (Arm A QD 0.6 mg (N = 2)) | Abdominal pain (drug related AE, all grades) (Arm A QD 0.6 mg (N = 2)) | Blood creatinine increased (drug related AE, all grades) (Arm A QD 0.6 mg (N = 2)) | Colitis (drug related AE, Grade 3 and 4) (Arm A QD 0.6 mg (N = 2)) | Cough (drug related AE, Grade 3 and 4) (Arm A QD 0.6 mg (N = 2)) | Cough (drug related AE, all grades) (Arm A QD 0.6 mg (N = 2)) | Decreased Appetite (drug related AE, Grade 3 and 4) (Arm A QD 0.6 mg (N = 2)) | Decreased Appetite (drug related AE, all grades) (Arm A QD 0.6 mg (N = 2)) | Dehydration (drug related AE, Grade 3 and 4) (Arm A QD 0.6 mg (N = 2)) | Dehydration (drug related AE, all grades) (Arm A QD 0.6 mg (N = 2)) | Dermatitis acneiform (drug related AE, all grades) (Arm A QD 0.6 mg (N = 2)) | Diarrhoea (drug related AE, Grade 3 and 4) (Arm A QD 0.6 mg (N = 2)) | Dry mouth (drug related AE, all grades) (Arm A QD 0.6 mg (N = 2)) | Dry skin (drug related AE, all grades) (Arm A QD 0.6 mg (N = 2)) | Dysgeusia (drug related AE, all grades) (Arm A QD 0.6 mg (N = 2)) | Dyspepsia (drug related AE, all grades) (Arm A QD 0.6 mg (N = 2)) | Dysphonia (drug related AE, all grades) (Arm A QD 0.6 mg (N = 2)) | Fatigue (drug related AE, Grade 3 and 4) (Arm A QD 0.6 mg (N = 2)) | Fatigue (drug related AE, all grades) (Arm A QD 0.6 mg (N = 2)) | Flatulence (drug related AE, all grades) (Arm A QD 0.6 mg (N = 2)) | Hypocalcaemia (drug related AE, Grade 3 and 4) (Arm A QD 0.6 mg (N = 2)) | Hypocalcaemia (drug related AE, all grades) (Arm A QD 0.6 mg (N = 2)) | Hypokalaemia (drug related AE, Grade 3 and 4) (Arm A QD 0.6 mg (N = 2)) | Hypokalaemia (drug related AE, all grades) (Arm A QD 0.6 mg (N = 2)) | Hyponatraemia (drug related AE, Grade 3 and 4) (Arm A QD 0.6 mg (N = 2)) | Hyponatraemia (drug related AE, all grades) (Arm A QD 0.6 mg (N = 2)) | Hypophosphataemia (drug related AE, Grade 3 and 4) (Arm A QD 0.6 mg (N = 2)) | Ileus (drug related AE, Grade 3 and 4) (Arm A QD 0.6 mg (N = 2)) | Increased upper airway secretion (drug related AE, all grades) (Arm A QD 0.6 mg (N = 2)) | Laryngeal pain (drug related AE, all grades) (Arm A QD 0.6 mg (N = 2)) | Leucocytosis (drug related AE, Grade 3 and 4) (Arm A QD 0.6 mg (N = 2)) | Mouth ulceration (drug related AE, all grades) (Arm A QD 0.6 mg (N = 2)) | Nausea (drug related AE, Grade 3 and 4) (Arm A QD 0.6 mg (N = 2)) | Pruritus (drug related AE, Grade 3 and 4) (Arm A QD 0.6 mg (N = 2)) | Pruritus (drug related AE, all grades) (Arm A QD 0.6 mg (N = 2)) | Pulmonary embolism (drug related AE, Grade 3 and 4) (Arm A QD 0.6 mg (N = 2))
1 (50) n (%): Hypophosphataemia (drug related AE, Grade 3 and 4) (Arm A QD 0.3 mg (N = 2)) | Pruritus (drug related AE, all grades) (Arm A QD 0.3 mg (N = 2)) | Rash (drug related AE, all grades) (Arm A QD 0.3 mg (N = 2)) | Sinusitis (drug related AE, all grades) (Arm A QD 0.3 mg (N = 2)) | Diarrhoea (drug related AE, all grades) (Arm A QD 0.6 mg (N = 2)) | Hypophosphataemia (drug related AE, all grades) (Arm A QD 0.6 mg (N = 2)) | Nausea (drug related AE, all grades) (Arm A QD 0.6 mg (N = 2)) | Rash (drug related AE, all grades) (Arm A QD 0.6 mg (N = 2))
